Patent US20160185774A1, “Anti-Infective Compounds” (priority 2013, published 2016)
≈ marks a conversion by molar mass, not a printed value.

System: M. tuberculosis
Assay: microbe, parasite or virus in culture
Assay type: cell-based
Conditions: Mycobacterium tuberculosis, 120 h; read-out: QUM (MIC80)

Compound | MIC80
CCc1nc2c(OC)cccn2c1C(=O)NCc1ccc(N2CCN(c3ccc(C(F)(F)F)cc3)CC2)cc1 [Compound 129] | 1 to 20 µM (≈ 0.538 to 10.8 µg/mL)
CCc1nc2ccc(Br)cn2c1C(=O)NCc1ccc(N2CCC(c3ccc(Cl)cc3)CC2)cc1 [Compound 159] | < 1 µM
CCc1nc2c(C(F)(F)F)cccn2c1C(=O)NCc1ccc(N2CCC(c3ccc(C(F)(F)F)cc3)CC2)cc1 [Compound 88] | 1 to 20 µM (≈ 0.575 to 11.5 µg/mL)
CCc1nc2ccc(Cl)cn2c1C(=O)NCc1ccc(C(=O)N(C)c2ccc(F)cc2)cc1 [Compound 305] | 1 to 20 µM (≈ 0.465 to 9.3 µg/mL)
CCc1nc2ccccn2c1C(=O)NCc1ccc(N2CCC(c3ccc(C(F)(F)F)cc3)CC2)cc1 [Compound 230] | < 1 µM
CCc1nc2cc(Cl)ccn2c1C(=O)NCc1ccc(N2CC[C@H](Oc3ccc(Cl)cc3)C2)cc1 [Compound 343] | < 1 µM
CCc1nc2ccc(Br)cn2c1C(=O)NCc1ccc(N2CCC(c3ccc(C(F)(F)F)cc3)CC2)cc1 [Compound 136] | < 1 µM
CCc1nc2c(F)cccn2c1C(=O)NCc1ccc(N2CCC(c3ccc(C)cc3)CC2)cc1 [Compound 6] | < 1 µM
CCc1nc2ccc(C(F)(F)F)cn2c1C(=O)NCc1ccc(N2CCN(c3ccc(OC)cc3)CC2)cc1 [Compound 109] | < 1 µM
CCc1nc2c(Cl)cccn2c1C(=O)NCc1ccc(N2CCN(c3ccc(Cl)cc3)CC2)cc1 [Compound 47] | < 1 µM
CCc1nc2ccc(C(F)(F)F)cn2c1C(=O)NCc1ccc(N2CCC(c3ccccc3)CC2)cc1 [Compound 178] | < 1 µM
CCc1nc2ccc(Cl)cn2c1C(=O)NCc1ccc(N2CCOCC2)c(F)c1 [Compound 307] | < 1 µM
CCc1nc2ccc(Cl)cn2c1C(=O)NCc1ccc(N2CCC(NC(=O)Cc3ccc(F)cc3)CC2)cc1 [Compound 232] | > 20 µM
CCc1nc2cc(C(F)(F)F)ccn2c1C(=O)NCc1ccc(N2CCC(c3ccc(Cl)cc3)CC2)cc1 [Compound 186] | < 1 µM
Cc1nc2cc(F)ccn2c1C(=O)NCc1ccc(N2CCC(c3ccc(Cl)cc3)CC2)cc1 [Compound 348] | < 1 µM
CCc1nc2c(C(F)(F)F)cccn2c1C(=O)NCc1ccc(N2CCC(c3ccc(OC(F)(F)F)cc3)CC2)cc1 [Compound 154] | 1 to 20 µM (≈ 0.591 to 11.8 µg/mL)
CCc1nc2ccc(C(F)(F)F)cn2c1C(=O)NCc1ccc(N2CCN(c3ccc(C(F)(F)F)cc3)CC2)cc1 [Compound 130] | < 1 µM
CCc1nc2ccc(Br)cn2c1C(=O)NCc1ccc(N2CCN(c3ccc(Cl)cc3)CC2)cc1 [Compound 201] | < 1 µM
CCc1nc2c(F)cccn2c1C(=O)NCc1ccc(N2CCN(c3ccc(OC)cc3)CC2)cc1 [Compound 32] | < 1 µM
CCc1nc2cc(Br)ccn2c1C(=O)NCc1ccc(N2CCN(c3ccc(C)cc3)CC2)cc1 [Compound 207] | < 1 µM
CCc1nc2cc(OC)ccn2c1C(=O)NCc1ccc(N2CCN(c3ccc(Cl)cc3)CC2)cc1 [Compound 220] | < 1 µM
CCc1nc2c(OC)cccn2c1C(=O)NCc1ccc(N2CCC(c3ccc(C(F)(F)F)cc3)CC2)cc1 [Compound 125] | 1 to 20 µM (≈ 0.537 to 10.7 µg/mL)
CCc1nc2c(C(F)(F)F)cccn2c1C(=O)NCc1ccc(N2CCN(c3ccc(C)cc3)CC2)cc1 [Compound 99] | 1 to 20 µM (≈ 0.522 to 10.4 µg/mL)
CCc1nc2ccc(Cl)cn2c1C(=O)NCc1ccc(N2CCN(c3ccc(C)cc3)CC2)cc1 [Compound 36] | < 1 µM
CCc1nc2ccc(F)cn2c1C(=O)NCc1ccc(N2CCN(c3ccc(OC)cc3)CC2)cc1 [Compound 149] | < 1 µM

Compound | MIC80
CCc1nc2c(C)cccn2c1C(=O)NCc1ccc(N2CCC(c3ccc(OC)cc3)CC2)cc1 [Compound 8] | < 1 µM
CCc1nc2cc(OC)ccn2c1C(=O)NCc1ccc(N2CCC(c3ccc(Cl)cc3)CC2)cc1 [Compound 21] | < 1 µM
CCc1nc2cc(C(F)(F)F)ccn2c1C(=O)NCc1ccc(N2CCC(c3ccc(OC(F)(F)F)cc3)CC2)cc1 [Compound 228] | < 1 µM
CCc1nc2cc(F)ccn2c1C(=O)NCc1ccc(N2CCN(c3ccc(F)cc3)CC2)cc1 [Compound 82] | < 1 µM
CCc1nc2ccc(Cl)cn2c1C(=O)NCc1ccc(N2CCC(C(=O)c3ccc(F)cc3)CC2)cc1 [Compound 240] | < 1 µM
CCc1nc2ccc(F)cn2c1C(=O)NCc1ccc(N2CCN(c3ccc(C)cc3)CC2)cc1 [Compound 75] | < 1 µM
CCc1nc2ccc(Cl)cn2c1C(=O)NCc1ccc(N2CC[C@H](Oc3ccc(Cl)cc3)C2)cc1 [Compound 342] | < 1 µM
CCc1nc2c(Cl)cccn2c1C(=O)NCc1ccc(N2CCC(c3ccccc3)CC2)cc1 [Compound 190] | < 1 µM
CCc1nc2ccc(Cl)cn2c1C(=O)NCc1ccc(C(=O)N(C)Cc2ccc(F)cc2)cc1 [Compound 317] | 1 to 20 µM (≈ 0.479 to 9.58 µg/mL)
Cc1nc2c(F)cccn2c1C(=O)NCc1ccc(N2CCC(c3ccc(OC(F)(F)F)cc3)CC2)cc1 [Compound 312] | < 1 µM
CCc1nc2ccc(OC)cn2c1C(=O)NCc1ccc(N2CCC(c3ccc(F)cc3)CC2)cc1 [Compound 179] | < 1 µM
CCc1nc2cc(Cl)ccn2c1C(=O)NCc1ccc(N2CCOCC2)c(F)c1 [Compound 308] | < 1 µM
CCc1nc2ccccn2c1C(=O)NCc1ccc(N2CCN(c3ccc(Cl)cc3)CC2)cc1 [Compound 37] | < 1 µM
CCc1nc2c(C)cccn2c1C(=O)NCc1ccc(N2CCN(c3ccccc3)CC2)cc1 [Compound 41] | < 1 µM
CCc1nc2ccc(C)cn2c1C(=O)NCc1ccc(N2CCC(c3ccc(F)cc3)CC2)cc1 [Compound 19] | < 1 µM
CCc1nc2ccc(F)cn2c1C(=O)NCc1ccc(N2CCC(c3ccc(C(F)(F)F)cc3)CC2)cc1 [Compound 11] | < 1 µM
CCc1nc2ccc(Br)cn2c1C(=O)NCc1ccc(N2CCC(c3ccc(F)cc3)CC2)cc1 [Compound 72] | < 1 µM
CCc1nc2cc(Cl)ccn2c1C(=O)NCc1ccc2oc(C)nc2c1 [Compound 339] | 1 to 20 µM (≈ 0.369 to 7.38 µg/mL)
CCc1nc2c(C)cccn2c1C(=O)NCc1ccc(N2CCN(c3ccc(C)cc3)CC2)cc1 [Compound 39] | < 1 µM
CCc1nc2ccc(Br)cn2c1C(=O)NCc1ccc(N2CCC(c3ccc(OC)cc3)CC2)cc1 [Compound 2] | < 1 µM
CCc1nc2cc(C(F)(F)F)ccn2c1C(=O)NCc1ccc(N2CCN(c3ccccc3)CC2)cc1 [Compound 81] | < 1 µM
CCc1nc2ccc(OC)cn2c1C(=O)NCc1ccc(N2CCN(c3ccc(OC)cc3)CC2)cc1 [Compound 111] | < 1 µM
CCc1nc2ccc(F)cn2c1C(=O)NCc1ccc(N2CCC(c3ccccc3)CC2)cc1 [Compound 165] | < 1 µM
CCc1nc2cc(Cl)ccn2c1C(=O)NCc1ccc(NC(=O)NC(C)(C)C)cc1 [Compound 277] | > 20 µM
CCc1nc2ccc(C(F)(F)F)cn2c1C(=O)NCc1ccc(N2CCC(c3ccc(C(F)(F)F)cc3)CC2)cc1 [Compound 146] | < 1 µM

Compound | MIC80
CCc1nc2cc(F)ccn2c1C(=O)NCc1ccc(N2CCC(c3ccccc3)CC2)cc1 [Compound 166] | < 1 µM
CCc1nc2c(C(F)(F)F)cccn2c1C(=O)NCc1ccc(N2CCN(c3ccccc3)CC2)cc1 [Compound 84] | 1 to 20 µM (≈ 0.508 to 10.2 µg/mL)
CCc1nc2ccc(C)cn2c1C(=O)NCc1ccc(N2CCN(c3ccc(Cl)cc3)CC2)cc1 [Compound 66] | < 1 µM
CCc1nc2ccc(OC)cn2c1C(=O)NCc1ccc(N2CCC(c3ccc(C(F)(F)F)cc3)CC2)cc1 [Compound 126] | < 1 µM
CCc1nc2c(Br)cccn2c1C(=O)NCc1ccc(N2CCN(c3ccc(C(F)(F)F)cc3)CC2)cc1 [Compound 218] | < 1 µM
CCc1nc2cc(OC)ccn2c1C(=O)NCc1ccc(N2CCN(c3ccc(C)cc3)CC2)cc1 [Compound 108] | < 1 µM
CCc1nc2ccc(C)cn2c1C(=O)NCc1ccc(N2CCN(c3ccc(C(F)(F)F)cc3)CC2)cc1 [Compound 60] | < 1 µM
CCc1nc2ccc(Cl)cn2c1C(=O)NCc1ccc(C(=O)CN2CCOCC2)cc1 [Compound 303] | < 1 µM
CCc1nc2ccc(Cl)cn2c1C(=O)NCc1ccc2ncn(Cc3ccc(OC(F)(F)F)cc3)c2c1 [Compound 274] | 1 to 20 µM (≈ 0.528 to 10.6 µg/mL)
CCc1nc2cc(Br)ccn2c1C(=O)NCc1ccc(N2CCC(c3ccc(F)cc3)CC2)cc1 [Compound 133] | < 1 µM
CCc1nc2ccccn2c1C(=O)NCc1ccc(N2CCN(c3ccc(OC)cc3)CC2)cc1 [Compound 30] | < 1 µM
CCc1nc2ccc(C(F)(F)F)cn2c1C(=O)NCc1ccc(N2CCN(c3ccc(OC(F)(F)F)cc3)CC2)cc1 [Compound 188] | < 1 µM
Cc1nc2c(F)cccn2c1C(=O)NCc1ccc(N2CCC(c3ccc(F)cc3)CC2)cc1 [Compound 311] | < 1 µM
CCc1nc2cc(C)ccn2c1C(=O)NCc1ccc(N2CCN(c3ccc(C(F)(F)F)cc3)CC2)cc1 [Compound 61] | < 1 µM
CCc1nc2cc(Cl)ccn2c1C(=O)NCc1ccc(C(=O)CN2CCOCC2)cc1 [Compound 304] | 1 to 20 µM (≈ 0.441 to 8.82 µg/mL)
CCc1nc2cc(C)ccn2c1C(=O)NCc1ccc(N2CCC(c3ccc(OC)cc3)CC2)cc1 [Compound 155] | < 1 µM
CCc1nc2c(OC)cccn2c1C(=O)NCc1ccc(N2CCN(c3ccc(OC(F)(F)F)cc3)CC2)cc1 [Compound 200] | 1 to 20 µM (≈ 0.554 to 11.1 µg/mL)
CCc1nc2ccc(OC)cn2c1C(=O)NCc1ccc(N2CCC(c3ccc(Cl)cc3)CC2)cc1 [Compound 172] | < 1 µM
CCc1nc2ccc(C)cn2c1C(=O)NCc1ccc(N2CCC(c3ccc(OC(F)(F)F)cc3)CC2)cc1 [Compound 174] | < 1 µM
CCc1nc2c(C)cccn2c1C(=O)NCc1ccc(N2CCC(c3ccc(C(F)(F)F)cc3)CC2)cc1 [Compound 145] | < 1 µM
CCc1nc2c(F)cccn2c1C(=O)NCc1ccc(N2CCN(c3ccc(OC(F)(F)F)cc3)CC2)cc1 [Compound 193] | < 1 µM
CCc1nc2c(C)cccn2c1C(=O)NCc1ccc(N2CCN(c3ccc(Cl)cc3)CC2)cc1 [Compound 43] | < 1 µM
CCc1nc2ccc(F)cn2c1C(=O)NCc1ccc(N2CCN(c3ccccc3)CC2)cc1 [Compound 71] | < 1 µM
CCc1nc2ccc(C(F)(F)F)cn2c1C(=O)NCc1ccc(N2CCC(c3ccc(OC(F)(F)F)cc3)CC2)cc1 [Compound 223] | < 1 µM
CCc1nc2ccc(Cl)cn2c1C(=O)NCc1ccc(NC2C3CC4CC(C3)CC2C4)cc1 (stereo not drawn) [Compound 323] | < 1 µM
